What was measured:
[1] = target: human plasma butyrylcholinesterase (hBuChE) (Homo sapiens (Human), UniProt P06276); test: Ellman's test, inhibition of human plasma butyrylcholinesterase; format: biochemical
Method in brief: (§1)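 Modified Ellman assay: compound preincubated 5 min with enzyme and DTNB in 0.1 M phosphate buffer pH 8.0 at 25° C (eqBuChE) or 36° C (hBuChE), then butyrylthiocholine added; absorbance change at 412 nm read after 5 min. Screening at 10 μM (eqBuChE) or 1 μM (hBuChE); IC50 by non-linear regression, triplicates.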

Albino Swiss CD-1 mice = test: Rotarod test; format: in vivo
Procedure: (§2) The research was conducted at the Department of Pharmacodynamics, Faculty of Pharmacy, Jagiellonian University in Krakow. All procedures were approved by the 1st and 2nd Local Ethics Committee for Animal Experiments in Krakow (consent no. 53/2017 and 250/2019) and were performed in accordance with the applicable European Union regulation (86/609/EEC). Males of two different strains of domestic mice (Mus musculus) were used in the study: Albino Swiss CD-1 (body weight approx. 20-24 g, age approx. 6 weeks) and C57BL/6J mice (body weight approx. 18-22 g, age approx. 6 weeks). The CD-1 strain was used for the passive avoidance, spontaneous mobility and rotating rod tests, while the C57BL/6J mice were used for the Morris water maze and the Barnes' maze. The animals were kept in standard, appropriately sized cages, divided into groups with a maximum of 10 animals. The animals in the study groups in the learning phase were intraperitoneally administered the test compound 1 h before the start of the experiments (doses in the preliminary test, i.e. in the passive avoidance test: 10, 30 and 60 mg/kg), and 30 minutes later, 1 mg/kg of scopolamine subcutaneously. Two control groups were used in the tests to assess the procognitive activity of JT-3—one of them received saline and the other saline and scopolamine.
Before the experiment, the mice were adequately trained (3 days, rod revolving at 18 rpm). The device consists of a rod set in a horizontal position. It is 75 cm long, divided into 4 tracks, and is set in rotation by an electric motor. This metal rod is placed 50 cm above the table to discourage mice from jumping off it. On the day of the actual test, 24 h after the animals' last training, the mice were placed sequentially on the bar for 60 s (for each rotation speed). The rod rotation speed was set to 6, 18, and 24 rpm, respectively. The inability of the mice to stay on the rod for 60 s was considered a disorder of motor coordination.

C57BL/6J mice = test: Barnes maze test (scopolamine); format: in vivo, Mus musculus
Procedure: as §2
The test is used to study spatial (hippocampal-dependent) memory. […] Barnes' maze has 18 escape holes (escape points) evenly spaced on the outer edges of the circular platform, and only one of them leads to so-called escape box, where the mouse can hide. For the first four days (acquisition phase), the mouse was placed in the center of the maze in the starting chamber, the light was turned on, then the chamber was raised and time was started. The number of errors was also counted, i.e. how many holes the mouse approached before approaching the right hole for the first time, and the total number of errors until it entered the escape box. […] Each mouse was subjected to four trials a day.
On the fifth day, which is the recall phase (without administration of compounds), the box was removed from the escape hole and the total errors, the number of errors made up to the first approach of the mouse to the hole where the escape box was previously found and the latency to the first approach of the mouse were counted for 90 seconds to that hole were counted. The number of approaches to this hole and the time the mouse spent on it were also counted. On the twelfth day—“proper test” (without administration of compounds), the effect of the compound on long-term memory was assessed. The experiment was as in the recall phase; the same parameters were measured. Between the fifth and twelfth days, the animals were kept in home cages.

[2] = target: horse plasma butyrylcholinesterase (eqBuChE) (Equus caballus (Horse), UniProt P81908); test: Ellman's test, inhibition of horse plasma butyrylcholinesterase; format: biochemical
Chain of horse plasma butyrylcholinesterase (eqBuChE) (P81908 whole entry): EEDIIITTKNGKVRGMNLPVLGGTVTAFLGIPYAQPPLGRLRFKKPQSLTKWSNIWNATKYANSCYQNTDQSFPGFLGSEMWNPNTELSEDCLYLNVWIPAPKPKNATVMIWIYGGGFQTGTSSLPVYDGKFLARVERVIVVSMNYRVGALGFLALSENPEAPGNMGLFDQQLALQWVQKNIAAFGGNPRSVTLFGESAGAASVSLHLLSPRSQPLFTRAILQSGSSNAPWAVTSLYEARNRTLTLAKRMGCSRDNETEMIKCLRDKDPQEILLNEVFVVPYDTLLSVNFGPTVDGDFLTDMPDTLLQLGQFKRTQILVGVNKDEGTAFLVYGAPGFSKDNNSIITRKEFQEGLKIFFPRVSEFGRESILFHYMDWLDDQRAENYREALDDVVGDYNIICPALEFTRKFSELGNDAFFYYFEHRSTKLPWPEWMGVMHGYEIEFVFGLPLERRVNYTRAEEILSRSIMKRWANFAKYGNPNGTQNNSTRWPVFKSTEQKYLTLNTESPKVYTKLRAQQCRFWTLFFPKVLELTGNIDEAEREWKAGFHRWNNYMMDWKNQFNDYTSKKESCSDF
Method in brief: as §1

mGAT2 = mGAT2 (Mus musculus (Mouse), UniProt P31651); test: [3H]GABA uptake inhibition, mGAT2 in HEK293 cells; format: cell-based; conditions: inhibitor at 100 μM; remaining reuptake
Chain of mGAT2 (P31651 whole entry): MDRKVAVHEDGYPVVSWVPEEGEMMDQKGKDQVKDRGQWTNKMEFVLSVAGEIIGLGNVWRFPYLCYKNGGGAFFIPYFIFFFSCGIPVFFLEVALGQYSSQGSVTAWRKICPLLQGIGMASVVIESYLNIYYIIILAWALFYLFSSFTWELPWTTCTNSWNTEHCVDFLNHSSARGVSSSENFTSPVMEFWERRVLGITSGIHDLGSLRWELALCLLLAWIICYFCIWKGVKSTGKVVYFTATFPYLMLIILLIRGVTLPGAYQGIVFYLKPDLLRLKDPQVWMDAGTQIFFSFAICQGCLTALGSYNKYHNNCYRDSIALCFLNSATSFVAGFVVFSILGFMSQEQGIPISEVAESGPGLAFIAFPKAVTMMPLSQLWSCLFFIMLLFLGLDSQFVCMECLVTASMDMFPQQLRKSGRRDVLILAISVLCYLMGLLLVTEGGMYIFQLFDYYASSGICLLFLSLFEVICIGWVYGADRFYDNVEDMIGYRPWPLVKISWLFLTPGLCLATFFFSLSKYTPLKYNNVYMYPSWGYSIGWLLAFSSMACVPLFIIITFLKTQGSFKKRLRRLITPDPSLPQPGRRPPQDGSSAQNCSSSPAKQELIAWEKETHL
Procedure: Exemplary compounds according to the invention were screened at the Ludwig-Maximilian University of Munich to determine the inhibitory ability towards four mouse GAT transporters (mGAT1-mGAT4). […] The biological material was stably transfected human embryonic kidney HEK293 cells, expressing genes to the appropriate transporters. The generated radioactivity was measured with a liquid scintillation counter. […] These determinations were made according to the procedure described in detail in A. Kragler, G. Höfner, K. T. Wanner, Novel parent structures for inhibitors of the murine GABA transporters mGAT3 and mGAT4, Eur. J. Pharmacol. 519 (2005) 43-47.

Chain of human plasma butyrylcholinesterase (hBuChE) (P06276 29-602): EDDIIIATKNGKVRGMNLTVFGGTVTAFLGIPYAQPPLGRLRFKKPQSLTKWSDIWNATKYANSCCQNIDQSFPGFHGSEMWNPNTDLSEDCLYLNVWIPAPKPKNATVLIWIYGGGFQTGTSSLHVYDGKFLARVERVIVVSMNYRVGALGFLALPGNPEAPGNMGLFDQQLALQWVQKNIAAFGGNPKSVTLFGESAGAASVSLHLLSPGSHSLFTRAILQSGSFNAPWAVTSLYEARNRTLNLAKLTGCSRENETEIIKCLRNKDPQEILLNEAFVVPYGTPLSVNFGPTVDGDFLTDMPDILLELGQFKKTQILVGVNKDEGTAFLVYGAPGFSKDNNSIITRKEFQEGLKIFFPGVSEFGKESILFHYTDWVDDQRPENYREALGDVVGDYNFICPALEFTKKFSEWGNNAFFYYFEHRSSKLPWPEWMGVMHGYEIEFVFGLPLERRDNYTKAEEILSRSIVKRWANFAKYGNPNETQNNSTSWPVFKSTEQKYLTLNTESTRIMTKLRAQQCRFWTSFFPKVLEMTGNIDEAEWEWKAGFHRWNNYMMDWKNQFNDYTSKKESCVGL

## O[C@H](CNCC1CC1)[C@H](Cc1ccccc1)NC1c2ccccc2-c2ccccc21 [JT-3, (2R,3S)-3-((9H-fluoren-9-yl)amino)-1-((cyclopropylmethyl)amino)-4-phenylbutan-2-ol]
[1]
  IC50: 207 nM
Albino Swiss CD-1 mice; 10 mg/kg
  influence on motor coordination: No negative influence
Albino Swiss CD-1 mice; 10 mg/kg and 30 mg/kg, speeds of 6, 18, and 24 rpm, all animals
  time kept on the bar: 60 s
Albino Swiss CD-1 mice; 30 mg/kg
  influence on motor coordination: No negative influence
C57BL/6J mice; 10 mg/kg i.p., days 1-4
  number of errors made before finding the escape site, acquisition phase: no statistically significant differences
C57BL/6J mice; 10 mg/kg i.p., fourth day of the test, p<0.05
  latency to find the escape site, acquisition phase vs scopolamine control: Statistically significant differences
C57BL/6J mice; fifth day, 10 mg/kg i.p. on days 1-4
  recall phase activity: not active
C57BL/6J mice; twelfth day, 10 mg/kg i.p. on days 1-4, p<0.0001
  number of errors made to find the escape zone vs scopolamine control: the reduction in errors was also statistically significant
C57BL/6J mice; twelfth day, 10 mg/kg i.p. on days 1-4, p<0.05
  latency to find the escape zone vs scopolamine control: the reduction in latency was also statistically significant
[2]
  IC50: 313 nM
mGAT2
  percentage of [3H]GABA reuptake retained, mGAT2: 51%
